Test results reported in patent US5518735A, “Meta-substituted phenylalanine derivatives” (priority 1990, dated 1996).
Where a name gives a salt, the structure may show the parent alone. Values belong to the compound of their own block, whether it stands above or below them.

Tests used:
thrombin = thrombin (Bos taurus, UniProt P00735); assay: Inhibition of thrombin (dissociation constant Ki); format: biochemical
factor Xa = factor Xa (Bos taurus, UniProt P00743); assay: Inhibition of factor Xa (dissociation constant Ki); format: biochemical; details: for Ki: Tables 19-25, read-out: Ki, Factor Xa
Chain of factor Xa (P00743 234-492 limits assumed): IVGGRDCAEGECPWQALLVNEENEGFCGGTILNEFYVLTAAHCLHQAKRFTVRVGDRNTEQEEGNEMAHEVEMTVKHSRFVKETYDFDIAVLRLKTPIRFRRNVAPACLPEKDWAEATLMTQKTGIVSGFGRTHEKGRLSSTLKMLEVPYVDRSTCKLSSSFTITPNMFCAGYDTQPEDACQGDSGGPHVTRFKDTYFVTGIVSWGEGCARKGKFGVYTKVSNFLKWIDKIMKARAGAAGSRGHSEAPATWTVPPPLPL
Chain of factor Xa (P00743 41-180 partner limits assumed): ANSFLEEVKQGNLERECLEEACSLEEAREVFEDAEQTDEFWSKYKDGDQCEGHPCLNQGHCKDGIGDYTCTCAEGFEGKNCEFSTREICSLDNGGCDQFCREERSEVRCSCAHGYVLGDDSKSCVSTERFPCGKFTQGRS

in vivo = details: mouse
[1] = Plasma concentration in rats after oral administration (HPLC); details: rat
[2] = Plasma concentration in rats after intravenous administration (HPLC); details: for pharmacokinetic properties: in words, compared with NAPAP
[3] = Plasma concentration in rats after subcutaneous administration (HPLC); details: rat
Procedure: For the pharmacokinetic characterization, the plasma concentration of selected derivatives was determined in rats after intravenous (i.v.), subcutaneous (s.c.) and peroral (p.o.) application according to the following three-step procedure:
1. A physiological NaCl solution of the substance to be tested was submitted to high pressure liquid chromatography (HPLC) in order to determine its characteristic substance-specific retention time with the chosen test conditions.
2. The substance to be tested was diluted in vitro in rat plasma. This solution was also submitted to HPLC to see whether the characteristic peak of the substance once again appeared at the substance-specific retention time.
3. […] Blood samples were taken at time intervals of 15 minutes, from which plasma samples were prepared by centrifugation; those samples were also submitted to HPLC to see whether the characteristic peak of the substance appeared again at the substance-specific retention time.

plasmin = molecular target: T1, plasmin (Homo sapiens, UniProt P00747); assay: Inhibition of plasmin (Ki); format: biochemical; details: Table 26
T1 construct: trypsin and the related enzymes thrombin, plasmin, factor Xa, tPA
T1 sequence (P00747 581-810 limits assumed): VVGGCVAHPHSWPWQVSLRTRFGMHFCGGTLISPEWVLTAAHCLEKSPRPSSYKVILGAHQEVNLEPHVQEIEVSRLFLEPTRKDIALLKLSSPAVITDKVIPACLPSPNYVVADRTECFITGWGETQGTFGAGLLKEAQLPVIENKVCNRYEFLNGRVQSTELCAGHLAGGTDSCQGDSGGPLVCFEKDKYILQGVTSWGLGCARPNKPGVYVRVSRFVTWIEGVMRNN
T1 sequence (P00747 97-580 partner limits assumed): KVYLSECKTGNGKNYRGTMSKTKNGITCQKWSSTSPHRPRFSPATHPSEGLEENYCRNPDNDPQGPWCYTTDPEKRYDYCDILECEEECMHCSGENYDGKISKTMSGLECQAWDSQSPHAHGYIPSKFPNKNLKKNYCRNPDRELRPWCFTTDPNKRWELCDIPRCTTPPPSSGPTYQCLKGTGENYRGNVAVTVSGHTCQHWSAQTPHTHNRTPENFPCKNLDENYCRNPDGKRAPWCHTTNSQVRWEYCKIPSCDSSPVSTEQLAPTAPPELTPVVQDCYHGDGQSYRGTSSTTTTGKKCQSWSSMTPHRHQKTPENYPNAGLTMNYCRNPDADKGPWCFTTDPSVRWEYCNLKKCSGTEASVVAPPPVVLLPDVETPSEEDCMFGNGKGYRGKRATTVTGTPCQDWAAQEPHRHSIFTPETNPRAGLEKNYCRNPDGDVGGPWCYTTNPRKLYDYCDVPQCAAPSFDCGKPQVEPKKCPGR

factor XIIa = molecular target: T2, factor XIIa (Homo sapiens, UniProt P00748); assay: Inhibition of factor XIIa (Ki); format: biochemical; details: Table 26
T2 construct: glandular kallikrein, factor XIIa and plasma kallikrein
T2 sequence (P00748 373-615 limits assumed): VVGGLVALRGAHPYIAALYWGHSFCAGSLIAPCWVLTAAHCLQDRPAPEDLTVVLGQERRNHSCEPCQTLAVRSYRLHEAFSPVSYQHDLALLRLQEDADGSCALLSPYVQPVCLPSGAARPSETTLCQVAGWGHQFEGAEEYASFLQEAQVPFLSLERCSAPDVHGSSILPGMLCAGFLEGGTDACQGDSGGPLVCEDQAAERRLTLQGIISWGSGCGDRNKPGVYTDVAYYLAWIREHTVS

tPA = tPA (Homo sapiens, UniProt P00750); assay: Inhibition of tPA (Ki); format: biochemical; details: Table 26
Chain of tPA (P00750 36-562): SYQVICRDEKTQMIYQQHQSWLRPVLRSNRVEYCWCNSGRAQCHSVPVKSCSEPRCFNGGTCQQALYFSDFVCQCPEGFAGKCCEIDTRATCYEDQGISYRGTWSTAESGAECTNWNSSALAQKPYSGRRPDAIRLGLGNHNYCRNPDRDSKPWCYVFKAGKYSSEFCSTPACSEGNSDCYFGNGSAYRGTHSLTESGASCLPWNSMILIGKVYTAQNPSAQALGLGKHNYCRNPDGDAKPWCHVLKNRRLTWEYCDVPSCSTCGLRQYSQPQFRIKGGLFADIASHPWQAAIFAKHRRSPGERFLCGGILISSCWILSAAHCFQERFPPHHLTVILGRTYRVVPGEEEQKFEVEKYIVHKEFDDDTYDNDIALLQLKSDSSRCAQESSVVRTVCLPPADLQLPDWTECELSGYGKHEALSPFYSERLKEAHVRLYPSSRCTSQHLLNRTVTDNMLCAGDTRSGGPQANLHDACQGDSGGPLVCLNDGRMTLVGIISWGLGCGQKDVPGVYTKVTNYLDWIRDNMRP

glandular kallikrein = glandular kallikrein (Sus scrofa, UniProt P00752); assay: Inhibition of glandular kallikrein (Ki); format: biochemical; details: Table 26; read-out: Ki, Gland. Kallikrein
Chain of glandular kallikrein (P00752 8-246): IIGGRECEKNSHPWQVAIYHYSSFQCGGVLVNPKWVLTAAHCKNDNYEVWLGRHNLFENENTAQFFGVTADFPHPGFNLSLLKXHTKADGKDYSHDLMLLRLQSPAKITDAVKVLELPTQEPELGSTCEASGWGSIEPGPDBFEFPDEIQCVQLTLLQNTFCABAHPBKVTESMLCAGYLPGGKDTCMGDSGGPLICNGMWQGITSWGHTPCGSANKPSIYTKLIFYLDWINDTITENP

plasma kallikrein = molecular target: T3, plasma kallikrein (Homo sapiens, UniProt P03952); assay: Inhibition of plasma kallikrein (Ki); format: biochemical; details: Table 26
T3 construct: glandular kallikrein, factor XIIa and plasma kallikrein
T3 sequence (P03952 391-638 limits assumed, species assumed): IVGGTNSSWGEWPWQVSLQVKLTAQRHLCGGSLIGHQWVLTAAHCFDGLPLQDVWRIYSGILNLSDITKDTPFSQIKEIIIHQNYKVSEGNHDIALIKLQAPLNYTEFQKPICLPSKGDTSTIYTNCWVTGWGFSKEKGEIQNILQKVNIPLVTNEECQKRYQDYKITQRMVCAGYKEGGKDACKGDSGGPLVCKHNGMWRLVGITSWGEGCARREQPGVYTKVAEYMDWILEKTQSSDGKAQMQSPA
T3 sequence (P03952 20-390 partner limits assumed, species assumed): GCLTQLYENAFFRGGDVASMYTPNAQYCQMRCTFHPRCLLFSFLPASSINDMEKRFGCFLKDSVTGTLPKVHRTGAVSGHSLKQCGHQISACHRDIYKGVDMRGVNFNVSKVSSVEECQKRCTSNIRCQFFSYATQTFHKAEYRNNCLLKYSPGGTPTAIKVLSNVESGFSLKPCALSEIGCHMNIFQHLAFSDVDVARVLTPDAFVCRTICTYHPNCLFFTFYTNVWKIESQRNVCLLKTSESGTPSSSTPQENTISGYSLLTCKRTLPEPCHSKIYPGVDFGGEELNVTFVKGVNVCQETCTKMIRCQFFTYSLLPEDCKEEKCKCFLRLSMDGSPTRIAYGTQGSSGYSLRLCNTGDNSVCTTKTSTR

Ki (thrombin): 16 µM
Ki (factor Xa): 380 µM
SMILES: N=C(N)c1cccc(CC(NS(=O)(=O)c2cccc3cccnc23)C(=O)N2CCCCC2C(=O)O)c1 (racemic) [Compound 180]

Ki (thrombin): 127 µM
Ki (factor Xa): 260 µM
SMILES: N=C(N)c1cccc(CC(NS(=O)(=O)c2cccc3cccnc23)C(=O)N2CCC(C(=O)O)CC2)c1 (racemic) [Compound 181]

Ki (thrombin): 50 µM
Ki (factor Xa): 140 µM
SMILES: NCc1cccc(CC(NS(=O)(=O)c2ccc3ccccc3c2)C(=O)N2CCCCC2C(=O)O)c1 (racemic) [Compound 185, N-α-(2-Naphthylsulfonyl)-3-aminomethyl-(D,L)-phenylalanyl-(D,L)-pipecolic acid]

SMILES: NCc1cccc(CC(NS(=O)(=O)c2ccc3ccccc3c2)C(=O)N2CCC(C(=O)O)CC2)c1 (racemic) [Compound 186]
Ki (thrombin): 0.5 µM
Ki (factor Xa): 230 µM
LD50 at 168 h (in vivo; iv): 100 mg/kg
LD50 at 168 h (in vivo; po): > 3000 mg/kg
concentration at 0.25 h ([1]; plasma, po, 100 mg/kg): 996 ng/mL
concentration at 0.5 h ([1]; plasma, po, 100 mg/kg): 800 ng/mL
concentration at 0.75 h ([1]; plasma, po, 100 mg/kg): 769 ng/mL
concentration at 1 h ([1]; plasma, po, 100 mg/kg): 1250 ng/mL
concentration at 1.5 h ([1]; plasma, po, 100 mg/kg): 877 ng/mL
concentration at 2 h ([1]; plasma, po, 100 mg/kg): 619 ng/mL
concentration at 3 h ([1]; plasma, po, 100 mg/kg): 357 ng/mL
concentration at 4 h ([1]; plasma, po, 100 mg/kg): 328 ng/mL
concentration at 5 h ([1]; plasma, po, 100 mg/kg): 370 ng/mL
concentration at 6 h ([1]; plasma, po, 100 mg/kg): 326 ng/mL
pharmacokinetic properties [2]: improved pharmacokinetic properties
concentration at 2 min ([2]; rat, plasma, iv, 1 mg/kg): 1840 ng/mL
concentration at 5 min ([2]; rat, plasma, iv, 1 mg/kg): 1260 ng/mL
concentration at 10 min ([2]; rat, plasma, iv, 1 mg/kg): 653 ng/mL
concentration at 0.25 h ([2]; rat, plasma, iv, 1 mg/kg): 426 ng/mL
concentration at 0.5 h ([2]; rat, plasma, iv, 1 mg/kg): 225 ng/mL
concentration at 0.75 h ([2]; rat, plasma, iv, 1 mg/kg): 205 ng/mL
concentration at 1 h ([2]; rat, plasma, iv, 1 mg/kg): 193 ng/mL
concentration at 1.5 h ([2]; rat, plasma, iv, 1 mg/kg): 53 ng/mL
concentration at 2 h ([2]; rat, plasma, iv, 1 mg/kg): 228 ng/mL
concentration at 0.25 h ([3]; plasma, sc, 5 mg/kg): 251 ng/mL
concentration at 0.5 h ([3]; plasma, sc, 5 mg/kg): 368 ng/mL
concentration at 0.75 h ([3]; plasma, sc, 5 mg/kg): 444 ng/mL
concentration at 1 h ([3]; plasma, sc, 5 mg/kg): 558 ng/mL
concentration at 1.5 h ([3]; plasma, sc, 5 mg/kg): 629 ng/mL
concentration at 2 h ([3]; plasma, sc, 5 mg/kg): 534 ng/mL
concentration at 3 h ([3]; plasma, sc, 5 mg/kg): 533 ng/mL
concentration at 4 h ([3]; plasma, sc, 5 mg/kg): 669 ng/mL
concentration at 5 h ([3]; plasma, sc, 5 mg/kg): 455 ng/mL
concentration at 6 h ([3]; plasma, sc, 5 mg/kg): 340 ng/mL

Ki (thrombin): 2.8 µM
Ki (factor Xa): > 1000 µM
SMILES: CC1CCN(C(=O)C(Cc2cccc(C(=N)NO)c2)NS(=O)(=O)c2ccc3ccccc3c2)CC1 (racemic) [Compound 187, N-α-(2-Naphthylsulfonyl)-3-oxamidino-(D,L)-phenylalanine-4-methylpiperidide hydroiodide]

Ki (thrombin): 330 µM
Ki (factor Xa): 410 µM
SMILES: N=C(NO)c1cccc(CC(NS(=O)(=O)c2ccc3ccccc3c2)C(=O)N2CCCCC2C(=O)O)c1 (racemic) [Compound 188, N-α-(2-Naphthylsulfonyl)-3-oxamidino-(D,L)-phenylalanyl-(D,L)-pipecolic acid hydroiodide]

Ki (thrombin): 270 µM
Ki (factor Xa): 670 µM
SMILES: N=C(NO)c1cccc(CC(NS(=O)(=O)c2ccc3ccccc3c2)C(=O)N2CCC(C(=O)O)CC2)c1 (racemic) [Compound 189, N-α-(2-Naphthylsulfonyl)-3-oxamidino-(D,L)-phenylalanyl-isonipecotic acid hydroiodide]

Ki (thrombin): 130 µM
Ki (factor Xa): 450 µM
SMILES: Nc1cccc(CC(NS(=O)(=O)c2ccc3ccccc3c2)C(=O)N2CCCCC2C(=O)O)c1 (racemic) [Compound 204]

Ki (thrombin): 720 µM
Ki (factor Xa): 720 µM
SMILES: Nc1cccc(CC(NS(=O)(=O)c2ccc3ccccc3c2)C(=O)N2CCC(C(=O)O)CC2)c1 (racemic) [Compound 205]

SMILES: N=C(N)Nc1cccc(CC(NS(=O)(=O)c2ccc3ccccc3c2)C(=O)N2CCCCC2C(=O)O)c1 (racemic) [Compound 208, N-α-(2-Naphthylsulfonyl)-3-guanidino-(D,L)-phenylalanine-(D,L)-pipecolic acid hydrochloride]
Ki (thrombin): 29 µM
Ki (factor Xa): 82 µM
LD50 at 168 h (in vivo; iv): > 50 mg/kg
LD50 at 168 h (in vivo; po): > 1000 mg/kg

inhibition of thrombin (thrombin; in words): surprisingly inhibits thrombin
inhibition of factor Xa (factor Xa; in words): does not selectively inhibit factor Xa
detection / concentration in plasma or absorption after oral administration ([1]; oral): absorbed by the intestine
pharmacokinetic properties [2]: excellent pharmacokinetic properties
SMILES: N=C(N)c1cccc(C[C@H](NS(=O)(=O)c2ccc3ccccc3c2)C(=O)N2CCC[C@H]2C(=O)O)c1 [Nα-2-naphthylsulfonyl-3-amidinophenylalanyl proline]
blood level after subcutaneous administration ([3]; s.c.): a relatively high blood level is reached which is maintained in an anticoagulantly effective concentration for a prolonged period of time

SMILES: COC(=O)[C@H](Cc1cccc(C(=N)N)c1)NC(=O)CNS(=O)(=O)c1ccc(C)cc1 [TAPAM, Nα-tosylglycyl-3-amidinophenylalanine methyl ester, reference compound]
Ki (plasmin): 160 µM
Ki (factor XIIa): 180 µM
Ki (tPA): 27 µM
Ki (glandular kallikrein): 890 µM
Ki (plasma kallikrein): 15 µM
LD50 at 168 h (in vivo; iv): 103 mg/kg
LD50 at 168 h (in vivo; po): > 1000 mg/kg
